The values that follow come from patent publication US11077109B2, “Compounds having antibacterial activity and methods of use” (The Trustees of Princeton University, priority 2017, dated 2021).

Assay [1] has as its system E. coli MC4100 imp4213 (imp) strain. The assay can be described thus: MIC of lead compounds on the imp strain, microdilution method in 96-well plates. Type of assay: cell-based. From the text:
With the aim of finding antibiotics with novel MOAs, an unbiased whole-cell screening approach was applied. To include antibiotics that target either gram-negative and gram-positive bacteria, compounds were screened that inhibited growth of the E. coli MC4100 imp4213 (imp) strain, which has a compromised OM that makes it permeable to antibiotics that would otherwise not penetrate the gram-negative lipolysaccheride (LPS). […] unique compounds spanning 5 libraries were screened, with 32,343 compounds represented once, 923 duplicates, 114 triplicates, 12 quadruplicates and 2 compounds represented five times, all at the concentration of 50 uM in DMSO.
From the 186 unique hits, 32 lead compounds were selected that either had not been identified as antibiotics or had unknown or ambiguous MOAs for further investigation. To understand the potency of these compounds, their minimum inhibitory concentration (MIC) was measured on the imp strain using the microdilution method in 96-well plates.
(In broth dilution the organism is exposed to a series of concentrations in liquid medium.)

The subject of assay [2] is folate metabolites in NCM 3722 E. coli cells. The assay can be described thus: Metabolomics and mass spectrometry of folate metabolites. Type of assay: cell-based.
Assay [3] has as its system B. subtilis essential gene knockdown library (folC, folA). Type of assay: cell-based. From the text:
The classical method of identifying the molecular target of an antibiotic is by selecting for antibiotic resistant mutants. However, SCH resistant mutants were not easily identified. A potential reason for this may be that SCH has multiple targets. To probe this hypothesis, a B. subtilis essential gene knockdown library was screened to select for strains that were sensitized to SCH (FIG. 12A). This library consists of ˜300 individual strains where the expression of each essential gene is repressed 3-fold by CRISPR interference (CRISPRi). This library was pinned onto agar plates containing a sub-MIC dose of SCH and the relative fitness of each gene was measured (FIG. 12A). […]

Another assay relates to ΔthyA lptD4213 cells. The assay can be described thus: Susceptibility of ΔthyA cells. It counts as cell-based, E. coli. The following applies: supplemented with exogenous Thymine.
Assay [4] has as its system Cpx envelope stress response (cpxP). The assay can be described thus: cpxP expression (Cpx envelope stress response activation). Type of assay: cell-based, E. coli MC4100 wild type. The conditions noted are these: drug at one to one-half the MIC (AGAs and chloramphenicol 5 μg/ml, triflupromazine 50 μg/ml). From the text: Thus, that the three AGAs fell into a distinct neighborhood not similar to the other ribosome-targeting antibiotics was unsurprising.

Assay [5] relates to Neisseria gonorrhoeae CCUG57598. The assay can be described thus: MIC against panel of clinically important pathogens: N. gonorrhoeae. It counts as cell-based. The conditions noted are these: read-out: MIC (inhibiting concentration), N. gonorrhoeae. As to the method: (§1) In an effort to understand how effective these 8, possibly novel, antibiotics might be in treating infections, their MICs against a panel of 22 clinically important pathogens shown in Table II were measured. In addition, the MICs of 3 other compounds of interest, rivaroxaban, AZT, and triflupromazine, were measured which were associated with specific drug classes. Of particular interest, ONO-RS-82 inhibited C. difficile and N. gonorrhoeae with at concentrations of 2 μg/ml and 0.25 μg/ml respectively.

Assay [6] relates to Enterococcus faecium ATCC BAA-2320. The assay can be described thus: MIC against panel of clinically important pathogens: E. faecium. Type of assay: cell-based. The following applies: ATCCBAA2320, read-out: MIC (inhibiting concentration), E. faecium. Here is the method:
as §1

For assay [7], the system named is methicillin resistant S. aureus (NARSA NRS384). The assay can be described thus: MIC against panel of clinically important pathogens: methicillin resistant S. aureus. Type of assay: cell-based. The following applies: Staphylococcus aureus, read-out: MIC (inhibiting concentration), methicillin resistant S. aureus. As to the method:
as §1

Assay [8] relates to Clostridium difficile ATCC BAA-1875. The assay can be described thus: MIC against panel of clinically important pathogens: C. difficile. The following applies: Clostridioides difficile, ATCCBAA1875, read-out: MIC (inhibiting concentration), C. difficile. It counts as cell-based. Here is the method:
as §1

The test system of the next assay is NCM 3722 E. coli cells. The assay can be described thus: MIC on NCM 3722 E. coli. Type of assay: cell-based. The following applies: NCM 3722 cells, Gutnick Minimal Media.
[9] abbreviates: E. coli MC4100 imp4213 (imp) strain, microdilution.

In brackets after ≈: the same amount, converted by molar mass. Counter-ions that a name gives are not always drawn. Bounds are passed on as bounds.

Method for ΔthyA lptD4213 cells: To test this hypothesis, the membrane potential and membrane permeability of lptD4213 cells were measured using the fluorescent dyes, DIOC2(3) and TO-PRO-3, and flow cytometry. DIOC2(3) is a cationic dye that accumulates in the cytoplasm of cells with an active membrane potential and shifts its fluorescence from red to green. The dye also stains the membrane of the cells in green and as a result the ratio of the red to green signals can provide a morphology and size independent measure of membrane potential (FIG. 14B). TO-PRO-3 is a nucleic acid stain that only stains cells with compromised membranes (FIG. 14B).

With `CC(=O)OC[C@H]1O[C@@H]([S-])[C@H](OC(C)=O)[C@@H](OC(C)=O)[C@@H]1OC(C)=O.CCP(CC)CC.[Au+]` [Auranofin], the MIC in assay [1] (setting [9]) was found to be 6.25 µM.
In the case of `COc1cccc(C2(O)CCCCC2CN(C)C)c1` (stereo not shown) [Tramadol hydrochloride], the MIC in assay [1] (Escherichia coli) was found to be 6.25 µM.
Still for that read-out and setting: for `O=c1[nH]c(=O)n([C@H]2C[C@H](O)[C@@H](CO)O2)cc1F` [Floxuridine] the value was 6.25 µM.
With `COc1cc(Cc2cnc(N)nc2N)cc(OC)c1OC` [Trimethoprim], the “metabolic response characteristic of FolA inhibition” value in assay [2] (NCM 3722 cells) is on record as “also observed”. Also, the “sensitivity of dihydrofolate reductase (folA) knockdown” value in assay [3] (sub-MIC / sub-lethal dose) was “sensitized”. For the same molecule, the “sensitivity of dihydrofolate synthetase (folC) knockdown” value in [3] (sub-MIC / sub-lethal dose on agar, confirmed in liquid) is recorded as “sensitized”. Moreover, the “susceptibility of ΔthyA lptD4213 cells” value in the assay with ΔthyA lptD4213 cells is on record as “resistant to high levels”.
Turning to gentamicin, the cpxP expression result in assay [4] is reported as “induced cpxP expression”.
`CCCCC(CC)CNC(=N)NC(=N)NCCCCCCNC(=N)NC(=N)NCC(CC)CCCC` (stereo not shown) [Alexidine hydrochloride]: the MIC in assay [1] (Escherichia coli) is 12.5 µM.
Regarding `O=C(N[C@H](CO)[C@H](O)c1ccc([N+](=O)[O-])cc1)C(Cl)Cl` [chloramphenicol], the cpxP expression entry in assay [4] is “did not”.
For the molecule `CC(=O)[C@]1(O)Cc2c(O)c3c(c(O)c2[C@@H](O[C@H]2C[C@H](N)[C@H](O)[C@H](C)O2)C1)C(=O)c1ccccc1C3=O` [Idarubicin], the MIC in assay [1] (Escherichia coli) was 25 µM.
`O=S(=O)(NCCNCC=Cc1ccc(Br)cc1)c1cccc2cnccc12` [H 89 dihydrochloride, N-[2-(p-Bromocinnamylamino)ethyl]-5-isoquinolinesulfonamide dihydrochloride]: the MIC in assay [1] (Escherichia coli) stood at 12.5 µM.
On the same count and under the same terms, for `O=C1Nc2ccc(I)cc2C1=Cc1cc(Br)c(O)c(Br)c1` [GW5074, 3-(3,5-dibromo-4-hydroxybenzyliden)-5-iodo-1,3-dihydroindol-2-one] the value was 6.25 µM.
As for Bleomycin, the MIC in [1] (setting [9]) is 0.1 µM.
As to `CN(C)CCCN1c2ccccc2Sc2ccc(C(F)(F)F)cc21` [Triflupromazine, N,N-dimethyl-3-[2-(trifluoromethyl)phenothiazin-10-yl]propan-1-amine], the MIC in [1] (Escherichia coli) was 25 µM. Also, the cpxP expression entry in [4] was “induced cpxP expression”.
Take `Oc1ccc(Cl)cc1Cc1cc(Cl)ccc1O` [Dichlorophen]: the MIC in assay [1] (Escherichia coli) was 12.5 µM.
As to `CCCCCCCCCCCCCCC[C@H](O)[C@H](N)CO` (racemic) [DL-erythro-dihydrosphingosine], the MIC in [1] (setting [9]) was 12.5 µM.
For the molecule `Clc1ccc(C(c2ccc(Cl)cc2)n2cc[n+](CC(OCc3ccc(Cl)cc3Cl)c3ccc(Cl)cc3Cl)c2)cc1.[Cl-]` (stereo not shown) [Calmidazolium chloride, 1-[bis(4-Chlorophenyl)methyl]-3-[2-(2,4-dichlorophenyl)-2-(2,4-dichlorobenzyloxy)ethyl]-1H-imidazolium chloride], the MIC in assay [5] was below 1 µg/mL; in assay [6] it was below 1 µg/mL; in [1] (Escherichia coli) it was 3.12 µM; in assay [7] it was below 1 µg/mL.
Take `Cc1nc2ccccc2n1Cc1ccc(Cl)cc1` [Chlormidazole]: the MIC in [1] (Escherichia coli) was found to be 25 µM.
Same read-out and setting: for `CC[n+]1c(C=CC=C2N(C)c3ccccc3C2(C)C)sc2ccccc21` [AC-93253 iodide, 2-[3-(1,3-dihydro-1,3,3-trimethyl-2H-indol-2-ylidene)-1-propenyl]-3-ethyl-benzothiazolium iodide] the value was 6.25 µM.
As to `CN[C@@H]1[C@@H](O[C@H]2O[C@H](CO)[C@@H](N)[C@H](O)[C@H]2O)OC2C[C@@H](N)[C@@H](O[C@H]3[C@H](O)[C@@H](O)[C@H](N)C[C@@H]3N)OC2[C@@H]1O` (stereo partly shown) [apramycin], in assay [4], the cpxP expression result is reported as “induced cpxP expression”.
As to `CCCCCc1ccc(C=CC(=O)Nc2cc(Cl)ccc2C(=O)O)cc1` [ONO-RS-082, 2-(p-amylcinnamoyl)amino-4-chlorobenzoic acid], the figures for the MIC in [5], in [1] (Escherichia coli) and in assay [8] were 0.25 µg/mL (≈ 0.672 µM), 3.12 µM and 2 µg/mL (≈ 5.38 µM), respectively.
As for `O=C(NC[C@H]1CN(c2ccc(N3CCOCC3=O)cc2)C(=O)O1)c1ccc(Cl)s1` [Rivaroxaban, (S)-5-Chloro-N-((2-oxo-3-(4-(3-oxomorpholino)phenyl)oxazolidin-5-yl)methyl)thiophene-2-carboxamide], in [1] (Escherichia coli), the MIC was determined as 0.05 µM.
`CC(C)c1ccc(Cn2ccc3c4c(N)nc(NC5CC5)nc4ccc32)cc1` [SCH 79797, N3-Cyclopropyl-7-[[4-(1-methylethyl)phenyl]methyl]-7H-pyrrolo[3,2-F]quinazoline-1,3-diamine dihydrochloride]: the “dihydrofolate (DHF) levels versus normal DHF levels” value in assay [2] (1× MIC for 15 minutes) is “approximately 10 fold”. Besides, the MIC in assay [1] (Escherichia coli) is 25 µM. In addition, the “MIC (1× MIC)” value against NCM 3722 E. coli cells stood at 31.25 µM.
As to `O=[N+]([O-])C(Br)(CO)CO` [Bronopol], the MIC in [1] (Escherichia coli) is 25 µM.
On the same count and under the same terms, next, `CC[n+]1c(-c2ccccc2)c2cc(N)ccc2c2ccc(N)cc21` [Homidium bromide]: 25 µM.
